# Source: patent US7781590B2, “Piperidinylalkylcarbamate derivatives, methods for their preparation and the therapeutic use thereof as fatty acid amido hydrolase enzyme inhibitors” (Sanofi-Aventis, priority 2004, dated 2010)
# Where a name gives a salt, the structure may show the parent alone.
row,SMILES,melting point [°C]
1,"CNC(=O)COC(=O)NCCC1CCN(CCc2ccccc2Cl)CC1 (as salt: HCl) [Compound 57, 2-(methylamino)-2-oxoethyl 2-{1-[2-(2-chlorophenyl)ethyl]piperidin-4-yl}ethylcarbamate]",121 to 123
2,"CNC(=O)COC(=O)NCCC1CCN(CCCc2ccc(OC)cc2)CC1 (as salt: HCl) [Compound 64, 2-(methylamino)-2-oxoethyl 2-(1-{3-[4-(methyloxy)phenyl]propyl}piperidin-4-yl)ethylcarbamate]",118 to 120
3,"CNC(=O)COC(=O)NCCC1CCN(C(C)c2cccc(OC(F)(F)F)c2)CC1 (stereo not drawn) (as salt: HCl) [Compound 110, 2-(methylamino)-2-oxoethyl 2-(1-{1-[3-(trifluoromethoxy)phenyl]ethyl}piperidin-4-yl)ethylcarbamate]",169 to 171
4,"CNC(=O)COC(=O)NCCC1CCN(Cc2ccc(Br)cc2)CC1 [Compound 12, 2-(methylamino)-2-oxoethyl 2-{1-[(4-bromophenyl)methyl]piperidin-4-yl}ethylcarbamate]",107 to 111
5,"CNC(=O)COC(=O)NCCC1CCN(Cc2cccc(Cl)c2Cl)CC1 [Compound 17, 2-(methylamino)-2-oxoethyl 2-{1-[(2,3-dichlorophenyl)methyl]piperidin-4-yl}ethylcarbamate]",114 to 116
6,"CNC(=O)COC(=O)NCCC1CCN(Cc2ccc(Cl)cc2Cl)CC1 [Compound 18, 2-(methylamino)-2-oxoethyl 2-[1-(2,4-dichlorobenzyl)piperidin-4-yl]ethylcarbamate]",117 to 119
7,"CNC(=O)COC(=O)NCCC1CCN(Cc2cc(Cl)ccc2Cl)CC1 [Compound 19, 2-(methylamino)-2-oxoethyl 2-[1-(2,5-dichlorobenzyl)piperidin-4-yl]ethylcarbamate]",125 to 127
8,"CNC(=O)COC(=O)NCCC1CCN(Cc2ccc(Cl)c(Cl)c2)CC1 [Compound 20, 2-(methylamino)-2-oxoethyl 2-{1-[(3,4-dichlorophenyl)methyl]piperidin-4-yl}ethylcarbamate]",101 to 105
9,"CNC(=O)COC(=O)NCCC1CCN(Cc2ccc(-c3ccc(F)cc3)cc2Cl)CC1 [Compound 27, 2-(methylamino)-2-oxoethyl 2-{1-[(3-chloro-4′-fluorobiphenyl-4-yl)methyl]piperidin-4-yl}ethylcarbamate]",98 to 102
10,"CNC(=O)COC(=O)NCCC1CCN(Cc2cccc3ccccc23)CC1 [Compound 29, 2-(methylamino)-2-oxoethyl 2-[1-(naphthalen-1-ylmethyl)piperidin-4-yl]ethylcarbamate]",86 to 88
11,"CNC(=O)COC(=O)NCCC1CCN(Cc2ccc3ccccc3c2)CC1 [Compound 30, 2-(methylamino)-2-oxoethyl 2-[1-(naphthalen-2-ylmethyl)piperidin-4-yl]ethylcarbamate]",87 to 93
12,CNC(=O)COC(=O)NCC1CCN(CCc2ccc(F)cc2OC)CC1 [Compound 52],126 to 128
13,"CNC(=O)COC(=O)NCCC1CCN(CCc2ccc(F)cc2)CC1 [Compound 58, 2-(methylamino)-2-oxoethyl 2-{1-[2-(4-fluorophenyl)ethyl]piperidin-4-yl}ethylcarbamate]",122 to 124
14,"CNC(=O)COC(=O)NCCC1CCN(CCc2c(F)cccc2Cl)CC1 [Compound 60, 2-(methylamino)-2-oxoethyl 2-{1-[2-(2-chloro-6-fluorophenyl)ethyl]piperidin-4-yl}ethylcarbamate]",88 to 90
15,CNC(=O)COC(=O)NC1CCN(CCOc2ccc(Cl)cc2Cl)CC1 [Compound 68],115 to 119
16,"CNC(=O)COC(=O)NCCC1CCN(CCOc2ccc(F)cc2)CC1 [Compound 83, 2-(methylamino)-2-oxoethyl 2-(1-{2-[(4-fluorophenyl)oxy]ethyl}piperidin-4-yl)ethylcarbamate]",125 to 129
17,"CNC(=O)COC(=O)NCCC1CCN(CCOc2ccc(Cl)cc2)CC1 [Compound 84, 2-(methylamino)-2-oxoethyl 2-(1-{2-[(4-chlorophenyl)oxy]ethyl}piperidin-4-yl)ethylcarbamate]",109 to 113
18,"CNC(=O)COC(=O)NCCC1CCN(Cc2ccc(F)cc2Cl)CC1 [Compound 100, 2-(methylamino)-2-oxoethyl 2-[1-(2-chloro-4-fluorobenzyl)piperidin-4-yl]ethylcarbamate]",108 to 110
19,"CNC(=O)COC(=O)NCCC1CCN(Cc2ccc(F)c(Cl)c2)CC1 [Compound 101, 2-(methylamino)-2-oxoethyl 2-[1-(3-chloro-4-fluorobenzyl)piperidin-4-yl]ethylcarbamate]",112 to 114
20,"CNC(=O)COC(=O)NCCC1CCN(Cc2nc(-c3ccc(C(F)(F)F)cc3)cs2)CC1 [Compound 106, 2-(methylamino)-2-oxoethyl 2-[1-({4-[4-(trifluoromethyl)phenyl]-1,3-thiazol-2-yl}methyl)piperidin-4-yl]ethylcarbamate]",161 to 163
21,"CNC(=O)COC(=O)NCCC1CCN(CCc2cc(-c3ccc(Cl)cc3)no2)CC1 [Compound 120, 2-(methylamino)-2-oxoethyl 2-(1-{2-[3-(4-chlorophenyl)isoxazol-5-yl]ethyl}piperidin-4-yl)ethylcarbamate]",135 to 137
22,"CNC(=O)COC(=O)NCCC1CCN(Cc2cccc(OC(C)(C)C)c2)CC1 [Compound 122, 2-(methylamino)-2-oxoethyl 2-[1-(3-tert-butoxybenzyl)piperidin-4-yl]ethylcarbamate]",66 to 70

# Now from value to molecule:
row,melting point [°C],SMILES
1,90 to 92,"CNC(=O)COC(=O)NCCC1CCN(Cc2cccc(C(F)(F)F)c2)CC1 [Compound 13, 2-(methylamino)-2-oxoethyl 2-(1-{[3-(trifluoromethyl)phenyl]methyl}piperidin-4-yl)ethylcarbamate]"
2,116 to 120,"CNC(=O)COC(=O)NCCC1CCN(Cc2ccc(C(F)(F)F)cc2)CC1 [Compound 14, 2-(methylamino)-2-oxoethyl 2-(1-{[4-(trifluoromethyl)phenyl]methyl}piperidin-4-yl)ethylcarbamate]"
3,109 to 111,"CNC(=O)COC(=O)NCCC1CCN(Cc2ccc(OC(F)(F)F)cc2)CC1 [Compound 16, 2-(methylamino)-2-oxoethyl 2-{1-[4-(trifluoromethoxy)benzyl]piperidin-4-yl}ethylcarbamate]"
4,124 to 126,"CNC(=O)COC(=O)NCCC1CCN(Cc2cc(Cl)cc(Cl)c2)CC1 [Compound 21, 2-(methylamino)-2-oxoethyl 2-[1-(3,5-dichlorobenzyl)piperidin-4-yl]ethylcarbamate]"
5,102 to 104,"CNC(=O)COC(=O)NCCC1CCN(Cc2cc(F)ccc2Cl)CC1 [Compound 22, 2-(methylamino)-2-oxoethyl 2-[1-(2-chloro-5-fluorobenzyl)piperidin-4-yl]ethylcarbamate]"
6,104 to 106,"CNC(=O)COC(=O)NCCC1CCN(Cc2cccc(Cl)c2F)CC1 [Compound 23, 2-(methylamino)-2-oxoethyl 2-[1-(3-chloro-2-fluorobenzyl)piperidin-4-yl]ethylcarbamate]"
7,79 to 81,"CNC(=O)COC(=O)NCCC1CCN(Cc2cc(C)cc(Cl)c2)CC1 [Compound 24, 2-(methylamino)-2-oxoethyl 2-[1-(3-chloro-5-methylbenzyl)piperidin-4-yl]ethylcarbamate]"
8,109 to 111,"CNC(=O)COC(=O)NCCC1CCN(Cc2ccc(Oc3ccc(Cl)c(F)c3)cc2)CC1 [Compound 28, 2-(methylamino)-2-oxoethyl 2-{1-[4-(4-chloro-3-fluorophenoxy)benzyl]piperidin-4-yl}ethylcarbamate]"
9,104 to 106,"CNC(=O)COC(=O)NCCC1CCN(Cc2ccccn2)CC1 [Compound 31, 2-(methylamino)-2-oxoethyl 2-[1-(pyridin-2-ylmethyl)piperidin-4-yl]ethylcarbamate]"
10,118 to 120,"CCOc1ccc(CCN2CCC(CCNC(=O)OCC(=O)NC)CC2)cc1 [Compound 59, 2-(methylamino)-2-oxoethyl 2-(1-{2-[4-(ethyloxy)phenyl]ethyl}piperidin-4-yl)ethylcarbamate]"
11,132 to 134,"CNC(=O)COC(=O)NCCC1CCN(Cc2cc(F)cc(C#N)c2)CC1 [Compound 102, 2-(methylamino)-2-oxoethyl 2-[1-(3-cyano-5-fluorobenzyl)piperidin-4-yl]ethylcarbamate]"
12,79 to 81,"CNC(=O)COC(=O)NCCC1CCN(Cc2cccc(Oc3ccc(F)cc3)c2)CC1 [Compound 103, 2-(methylamino)-2-oxoethyl 2-{1-[3-(4-fluorophenoxy)benzyl]piperidin-4-yl}ethylcarbamate]"
13,169 to 171,"CNC(=O)COC(=O)NCCC1CCN(Cc2cc(-c3ccc(Cl)cc3)no2)CC1 [Compound 104, 2-(methylamino)-2-oxoethyl 2-(1-{[3-(4-chlorophenyl)isoxazol-5-yl]methyl}piperidin-4-yl)ethylcarbamate]"
14,124 to 126,"CNC(=O)COC(=O)NCCC1CCN(Cc2ncc(-c3ccc(Cl)cc3)o2)CC1 [Compound 105, 2-(methylamino)-2-oxoethyl 2-(1-{[5-(4-chlorophenyl)-1,3-oxazol-2-yl]methyl}piperidin-4-yl)ethylcarbamate]"
